In paper PMC8037182, “Solvothermal Synthesis of Multiple Dihydropyrimidinones at a Time as Inhibitors of Eg5” (Molecules, 2021):

Tested on: Caco-2 cell line
Assay: Cytotoxicity MTS assay, Caco-2 cell line
Assay type: cell-based
Details: for OD490 Mean / OD490 Well 1 / OD490 Well 2 / OD490 Well 3: Caco-2 cell line
Experimental: The positive compounds (IC50 < 100 μM) obtained from the primary Eg5 motor protein ATPase assay were tested for antiproliferative activity in vitro against Caco-2 cell line, Hela cell line, L929 cell line and T24 cell line by performing MTS assay. Cells were introduced into 96-well plates at a density of 1000 cells per well. After 24 h incubation, the cells were exposed with compounds at final concentrations ranging from 0.5 to 100 µM for 24 h. DMSO was used at a final concentration of 0.025% as blank control, monastrol was used as the positive control. Then 20 µL (CellTiter 96® AQueous One Solution Promega, Madison, WI, USA) reagent was added in each well. After 2 h at 37 °C in a 80% humidified, 5% CO2 atmosphere, the absorbance at 490 nm was recorded using a microplate reader (BIO-RAD iMark^TM). The results were obtained in three independent duplicate experiments. The primary data were shown in Supplementary Materials Tables S4–S7. The IC50 values for these compounds were calculated from a non-linear regression graph plotted between the percentage of cell viability and concentration with SPSS17.0 software.

CCOC(=O)c1c(C2NC(=O)NC(C)=C2C(=O)Nc2ccccc2C)[nH]c(C(=O)OC)c1C (stereo not shown) [D2]
OD490 Mean (0.5μM, first assay): 0.6270 | OD490 Well 1 (0.5μM, first assay): 0.5887 | OD490 Well 2 (0.5μM, first assay): 0.6362 | OD490 Well 3 (0.5μM, first assay): 0.6562 | OD490 Mean (0.5μM, second assay): 0.7070 | OD490 Well 1 (0.5μM, second assay): 0.7084 | OD490 Well 2 (0.5μM, second assay): 0.7002 | OD490 Well 3 (0.5μM, second assay): 0.7123 | OD490 Mean (0.5μM, third assay): 0.6851 | OD490 Well 1 (0.5μM, third assay): 0.4885 | OD490 Well 2 (0.5μM, third assay): 0.8254 | OD490 Well 3 (0.5μM, third assay): 0.7414 | OD490 Mean (1μM, first assay): 0.6349 | OD490 Well 1 (1μM, first assay): 0.5288 | OD490 Well 2 (1μM, first assay): 0.6946 | OD490 Well 3 (1μM, first assay): 0.6813 | OD490 Mean (1μM, second assay): 0.7459 | OD490 Well 1 (1μM, second assay): 0.7813 | OD490 Well 2 (1μM, second assay): 0.6848 | OD490 Well 3 (1μM, second assay): 0.7716 | OD490 Mean (1μM, third assay): 0.6746 | OD490 Well 1 (1μM, third assay): 0.6245 | OD490 Well 2 (1μM, third assay): 0.7010 | OD490 Well 3 (1μM, third assay): 0.6982 | OD490 Mean (10μM, first assay): 0.6116 | OD490 Well 1 (10μM, first assay): 0.5314 | OD490 Well 2 (10μM, first assay): 0.6140 | OD490 Well 3 (10μM, first assay): 0.6893 | OD490 Mean (10μM, second assay): 0.7407 | OD490 Well 1 (10μM, second assay): 0.7116 | OD490 Well 2 (10μM, second assay): 0.7395 | OD490 Well 3 (10μM, second assay): 0.771 | OD490 Mean (10μM, third assay): 0.6639 | OD490 Well 1 (10μM, third assay): 0.7421 | OD490 Well 2 (10μM, third assay): 0.5621 | OD490 Well 3 (10μM, third assay): 0.6874 | OD490 Mean (25μM, first assay): 0.6114 | OD490 Well 1 (25μM, first assay): 0.5587 | OD490 Well 2 (25μM, first assay): 0.6570 | OD490 Well 3 (25μM, first assay): 0.6185 | OD490 Mean (25μM, second assay): 0.6775 | OD490 Well 1 (25μM, second assay): 0.5825 | OD490 Well 2 (25μM, second assay): 0.7137 | OD490 Well 3 (25μM, second assay): 0.7364 | OD490 Mean (25μM, third assay): 0.6183 | OD490 Well 1 (25μM, third assay): 0.6214 | OD490 Well 2 (25μM, third assay): 0.6325 | OD490 Well 3 (25μM, third assay): 0.6010 | OD490 Mean (50μM, first assay): 0.5907 | OD490 Well 1 (50μM, first assay): 0.6013 | OD490 Well 2 (50μM, first assay): 0.6084 | OD490 Well 3 (50μM, first assay): 0.5625 | OD490 Mean (50μM, second assay): 0.5350 | OD490 Well 1 (50μM, second assay): 0.5688 | OD490 Well 2 (50μM, second assay): 0.5038 | OD490 Well 3 (50μM, second assay): 0.5324 | OD490 Mean (50μM, third assay): 0.5761 | OD490 Well 1 (50μM, third assay): 0.6025 | OD490 Well 2 (50μM, third assay): 0.5936 | OD490 Well 3 (50μM, third assay): 0.5321 | OD490 Mean (100μM, first assay): 0.4815 | OD490 Well 1 (100μM, first assay): 0.4762 | OD490 Well 2 (100μM, first assay): 0.4852 | OD490 Well 3 (100μM, first assay): 0.4831 | OD490 Mean (100μM, second assay): 0.5288 | OD490 Well 1 (100μM, second assay): 0.5278 | OD490 Well 2 (100μM, second assay): 0.5253 | OD490 Well 3 (100μM, second assay): 0.5332 | OD490 Mean (100μM, third assay): 0.5185 | OD490 Well 1 (100μM, third assay): 0.5637 | OD490 Well 2 (100μM, third assay): 0.4985 | OD490 Well 3 (100μM, third assay): 0.4932 | IC50 (MTS assay, 24 h exposure): 116 µM
